Measured values: ChEMBL document CHEMBL5036339, “Synthesis and biological evaluation of indole-based peptidomimetics as antibacterial agents against Gram-positive bacteria” (Eur J Med Chem, 2021)
Values after ≈ are worked out from the molar mass of the structure shown. Active and inactive are the calls of the source. No cut-off for these calls is given here.

Assays:
HEK293 [1] = assay: Cytotoxicity against human HEK293 cells assessed as reduction in cell viability at 25 ug/ml after 24 hrs by CCK8 assay; type: cell-based; settings: hek293, 24 h, at 25 µg/mL
Staphylococcus aureus [2] = assay: Bactericidal activity against Staphylococcus aureus NCTC 10442 assessed as log reduction in bacterial growth at 8X MIC measured within 0.5 hr by time-kill kinetic assay; type: functional
[3] = Cytotoxicity against mouse NCTC clone 929 cells assessed as reduction in cell viability at 6.25 ug/ml after 24 hrs by CCK8 assay; type: cell-based; settings: nctc clone 929, 24 h, at 6.25 µg/mL
Staphylococcus aureus [4] = assay: Induction of drug resistance in Staphylococcus aureus ATCC29213 assessed as reduction in bacterial growth at 0.5 times MIC measured after 24 hr; type: functional, organism-based
J774.A1 [5] = assay: Cytotoxicity against mouse J774.A1 cells assessed as reduction in cell viability at 6.25 ug/ml after 24 hrs by CCK8 assay; type: cell-based; settings: j774.a1, 24 h, at 6.25 µg/mL
Staphylococcus aureus [6] = assay: Antibacterial activity against methicillin-resistant Staphylococcus aureus N315 assessed as reduction in bacterial growth in presence of zinc salt; type: functional
Staphylococcus aureus [7] = assay: Antibacterial activity against methicillin-resistant Staphylococcus aureus NCTC 10442 assessed as reduction in bacterial growth in presence of magnesium salt; type: functional
[8] = Hemolytic activity in rabbit erythrocytes assessed as concentration required to cause 50% hemolysis; type: ADME, cell-based, Oryctolagus cuniculus, Erythrocyte
Staphylococcus aureus [9] = assay: Antibacterial activity against Staphylococcus aureus ATCC29213 assessed as reduction in bacterial growth in presence of sodium salt; type: functional
Staphylococcus aureus [10] = assay: Antibacterial activity against methicillin-resistant Staphylococcus aureus N315 assessed as reduction in bacterial growth in presence of ferrous salt; type: functional
HEK293 [11] = assay: Cytotoxicity against human HEK293 cells assessed as reduction in cell viability at 50 ug/ml after 24 hrs by CCK8 assay; type: cell-based; settings: hek293, 24 h, at 50 µg/mL
J774.A1 [12] = assay: Cytotoxicity against mouse J774.A1 cells assessed as reduction in cell viability at 12.5 ug/ml after 24 hrs by CCK8 assay; type: cell-based; settings: j774.a1, 24 h, at 12.5 µg/mL
Staphylococcus aureus [13] = assay: Bactericidal activity against Staphylococcus aureus NCTC 10442 assessed as log reduction in bacterial growth at 4X MIC measured within 0.5 hr by time-kill kinetic assay; type: functional; settings: time hrs <=0.5
Staphylococcus aureus [14] = assay: Antibacterial activity against methicillin-resistant Staphylococcus aureus N315 assessed as reduction in bacterial growth in presence of potassium salt; type: functional
Staphylococcus aureus [15] = assay: Antibacterial activity against methicillin-resistant Staphylococcus aureus N315 assessed as reduction in bacterial growth in presence of calcium salt; type: functional
Staphylococcus aureus [16] = assay: Bactericidal activity against Staphylococcus aureus NCTC 10442 assessed as log reduction in bacterial growth at 1X MIC measured within 24 hr by time-kill kinetic assay; type: functional
Staphylococcus aureus [17] = assay: Antibacterial activity against methicillin-resistant Staphylococcus aureus NCTC 10442 assessed as reduction in bacterial growth in presence of ferrous salt; type: functional
Staphylococcus aureus [18] = assay: Antibacterial activity against methicillin-resistant Staphylococcus aureus N315 assessed as reduction in bacterial growth in presence of magnesium salt; type: functional
Staphylococcus aureus [19] = assay: Antibacterial activity against Staphylococcus aureus ATCC29213 assessed as reduction in bacterial growth in presence of magnesium salt; type: functional
Staphylococcus aureus [20] = assay: Antibacterial activity against methicillin-resistant Staphylococcus aureus N315 assessed as reduction in bacterial growth in presence of ferric salt; type: functional
Staphylococcus aureus [21] = assay: Antibacterial activity against Staphylococcus aureus ATCC29213 assessed as reduction in bacterial growth; type: functional
[22] = Cytotoxicity against mouse NCTC clone 929 cells assessed as reduction in cell viability at 50 ug/ml after 24 hrs by CCK8 assay; type: cell-based; settings: nctc clone 929, 24 h, at 50 µg/mL
Staphylococcus aureus [23] = assay: Antibacterial activity against Staphylococcus aureus ATCC29213 assessed as reduction in bacterial growth in presence of ferrous salt; type: functional
Staphylococcus aureus [24] = assay: In vivo antibacterial activity against Staphylococcus aureus ATCC29213 in mouse bacterial keratitis model assessed as log reduction in bacterial load in infected cornea at 0.5%,TOP after 24 hour infection; type: functional, organism-based
Staphylococcus aureus [25] = assay: Antibacterial activity against methicillin-resistant Staphylococcus aureus NCTC 10442 assessed as reduction in bacterial growth in presence of calcium salt; type: functional
Staphylococcus aureus [26] = assay: Antibacterial activity against Staphylococcus aureus ATCC29213 assessed as reduction in bacterial growth in presence of potassium salt; type: functional
Staphylococcus aureus [27] = assay: Antibacterial activity against methicillin-resistant Staphylococcus aureus NCTC 10442 assessed as reduction in bacterial growth in presence of sodium salt; type: functional
Staphylococcus aureus [28] = assay: Bactericidal activity against Staphylococcus aureus NCTC 10442 assessed as log reduction in bacterial growth at 2X MIC measured within 24 hr by time-kill kinetic assay; type: functional
Staphylococcus aureus [29] = assay: Antibacterial activity against Staphylococcus aureus ATCC29213 assessed as reduction in bacterial growth in presence of ferric salt; type: functional
HEK293 [30] = assay: Cytotoxicity against human HEK293 cells assessed as reduction in cell viability at 12.5 ug/ml after 24 hrs by CCK8 assay; type: cell-based; settings: hek293, 24 h, at 12.5 µg/mL
J774.A1 [31] = assay: Cytotoxicity against mouse J774.A1 cells assessed as reduction in cell viability at 3.125 ug/ml after 24 hrs by CCK8 assay; type: cell-based; settings: j774.a1, 24 h, at 3.125 µg/mL
Cell membrane = assay: Induction of membrane disruption in […] assessed as increase in red fluorescence at 12.48 ug/ml by SYTO 9/PI staining based flourescence microscopy method; type: functional; settings: dose 12.48 µg/ml
Staphylococcus aureus [32] = assay: Antibacterial activity against methicillin-resistant Staphylococcus aureus NCTC 10442 assessed as reduction in bacterial growth in presence of ferric salt; type: functional
Staphylococcus aureus [33] = assay: Antibacterial activity against Staphylococcus aureus ATCC29213 assessed as reduction in bacterial growth in presence of zinc salt; type: functional
Staphylococcus aureus [34] = assay: Antibacterial activity against Staphylococcus aureus ATCC29213 assessed as reduction in bacterial growth in presence of calcium salt; type: functional
Staphylococcus aureus [35] = assay: Antibacterial activity against methicillin-resistant Staphylococcus aureus N315 assessed as reduction in bacterial growth in presence of sodium salt; type: functional
HEK293 [36] = assay: Cytotoxicity against human HEK293 cells assessed as reduction in cell viability at 3.125 ug/ml after 24 hrs by CCK8 assay; type: cell-based; settings: hek293, 24 h, at 3.125 µg/mL
Staphylococcus aureus [37] = assay: Antibacterial activity against methicillin-resistant Staphylococcus aureus NCTC 10442 assessed as reduction in bacterial growth in presence of potassium salt; type: functional
J774.A1 [38] = assay: Cytotoxicity against mouse J774.A1 cells assessed as reduction in cell viability at 50 ug/ml after 24 hrs by CCK8 assay; type: cell-based; settings: j774.a1, 24 h, at 50 µg/mL
[39] = Cytotoxicity against mouse NCTC clone 929 cells assessed as reduction in cell viability at 3.125 ug/ml after 24 hrs by CCK8 assay; type: cell-based; settings: nctc clone 929, 24 h, at 3.125 µg/mL
HEK293 [40] = assay: Cytotoxicity against human HEK293 cells assessed as reduction in cell viability at 6.25 ug/ml after 24 hrs by CCK8 assay; type: cell-based; settings: hek293, 24 h, at 6.25 µg/mL
Staphylococcus aureus [41] = assay: Antibacterial activity against methicillin-resistant Staphylococcus aureus NCTC 10442 assessed as reduction in bacterial growth; type: functional
[42] = Cytotoxicity against mouse NCTC clone 929 cells assessed as reduction in cell viability at 25 ug/ml after 24 hrs by CCK8 assay; type: cell-based; settings: nctc clone 929, 24 h, at 25 µg/mL
Staphylococcus aureus [43] = assay: Antibacterial activity against methicillin-resistant Staphylococcus aureus NCTC 10442 assessed as reduction in bacterial growth in presence of zinc salt; type: functional
J774.A1 [44] = assay: Cytotoxicity against mouse J774.A1 cells assessed as reduction in cell viability at 25 ug/ml after 24 hrs by CCK8 assay; type: cell-based; settings: j774.a1, 24 h, at 25 µg/mL
Escherichia coli = assay: Antibacterial activity against Escherichia coli ATCC25922 assessed as reduction in bacterial growth; type: functional
Staphylococcus aureus [45] = assay: Antibacterial activity against methicillin-resistant Staphylococcus aureus N315 assessed as reduction in bacterial growth; type: functional
[46] = Cytotoxicity against mouse NCTC clone 929 cells assessed as reduction in cell viability at 12.5 ug/ml after 24 hrs by CCK8 assay; type: cell-based; settings: nctc clone 929, 24 h, at 12.5 µg/mL

## CC(C)=CCC/C(C)=C/Cn1cc(CC(=O)NCCN(CCNC(=N)N)CCNC(=N)N)c2ccccc21
HEK293 [1]
  Activity: 76.79%
Staphylococcus aureus [2]
  Activity: 3 CFU
[3]
  Activity: 79.43%
Staphylococcus aureus [4]
  Activity: inactive
J774.A1 [5]
  Activity: 95.8%
Staphylococcus aureus [6]
  MIC: 1.56 µg/mL
Staphylococcus aureus [7]
  MIC: 1.56 µg/mL
[8]
  HC50: 226 µg/mL
Staphylococcus aureus [9]
  MIC: 1.56 µg/mL
Staphylococcus aureus [10]
  MIC: 1.56 µg/mL
HEK293 [11]
  Activity: 68.26%
J774.A1 [12]
  Activity: 85.85%
Staphylococcus aureus [13]
  log reduction: 3 log10 CFU/mL
Staphylococcus aureus [14]
  MIC: 1.56 µg/mL
Staphylococcus aureus [15]
  MIC: 1.56 µg/mL
Staphylococcus aureus [16]
  Activity: 3 CFU
Staphylococcus aureus [17]
  MIC: 1.56 µg/mL
Staphylococcus aureus [18]
  MIC: 1.56 µg/mL
Staphylococcus aureus [19]
  MIC: 1.56 µg/mL
Staphylococcus aureus [20]
  MIC: 1.56 µg/mL
Staphylococcus aureus [21]
  MIC: 1.56 µg/mL (≈ 2.98 µM)
[22]
  Activity: 64.79%
Staphylococcus aureus [23]
  MIC: 1.56 µg/mL
Staphylococcus aureus [24]
  Activity: Active
Staphylococcus aureus [25]
  MIC: 1.56 µg/mL
Staphylococcus aureus [26]
  MIC: 1.56 µg/mL
Staphylococcus aureus [27]
  MIC: 1.56 µg/mL
Staphylococcus aureus [28]
  Activity: 3 CFU
Staphylococcus aureus [29]
  MIC: 1.56 µg/mL
HEK293 [30]
  Activity: 84.69%
J774.A1 [31]
  Activity: 100.34%
Cell membrane
  Activity: Active
Staphylococcus aureus [32]
  MIC: 1.56 µg/mL
Staphylococcus aureus [33]
  MIC: 1.56 µg/mL
Staphylococcus aureus [34]
  MIC: 1.56 µg/mL
Staphylococcus aureus [35]
  MIC: 1.56 µg/mL
HEK293 [36]
  Activity: 94.48%
Staphylococcus aureus [37]
  MIC: 1.56 µg/mL
J774.A1 [38]
  Activity: 56%
[39]
  Activity: 87.85%
HEK293 [40]
  Activity: 92.66%
Staphylococcus aureus [41]
  MIC: 1.56 µg/mL (≈ 2.98 µM)
[42]
  Activity: 71.16%
Staphylococcus aureus [43]
  MIC: 1.56 µg/mL
J774.A1 [44]
  Activity: 77.46%
Escherichia coli
  MIC: 12.5 µg/mL (≈ 23.9 µM)
Staphylococcus aureus [45]
  MIC: 1.56 µg/mL (≈ 2.98 µM)
[46]
  Activity: 72.66%
